Results: BindingDB's records for doi:10.1016/0960-894X(95)00340-Y (1995)
Where a name gives a salt, the structure may show the parent alone.

Target: Leukotriene B4 receptor 1 (Cavia porcellus)
Assay: Binding affinity against Guinea pig membrane LTB4 Receptor.

Compound	Ki [µM]
CCCc1cc(CC)c(OCCCCCC(C)(C)c2nn[nH]n2)cc1O [Sodium salt of 4-Ethyl-5-[6-methyl-6-(2H-tetrazol-5-yl)-heptyloxy]-2-propyl-phenol]	0.014
CCc1cc(CC)c(OCCCCCC(C)(C)c2nn[nH]n2)cc1O [sodium 2,4-diethyl-5-[6-methyl-6-(2H-1,2,3,4-tetraazol-5-yl)heptyloxy]phenol]	0.017
CCCCCCc1cc(CC)c(OCCCCCC(C)(C)c2nn[nH]n2)cc1O [sodium 4-ethyl-2-hexyl-5-[6-methyl-6-(2H-1,2,3,4-tetraazol-5-yl)heptyloxy]phenol]	0.033
